Columns and labels:
[1] = biological target: T1, FBXL10 (KDM2B) (Homo sapiens, UniProt Q8NHM5); test: Histone lysine demethylase AlphaLISA assay, FBXL10; assay type: biochemical; conditions: substrate BH3K36M2
T1 construct: 1-650; purchased BPS, Bioscience, US; host or cells: Bac (baculovirus)
T1 sequence (Q8NHM5 1-650): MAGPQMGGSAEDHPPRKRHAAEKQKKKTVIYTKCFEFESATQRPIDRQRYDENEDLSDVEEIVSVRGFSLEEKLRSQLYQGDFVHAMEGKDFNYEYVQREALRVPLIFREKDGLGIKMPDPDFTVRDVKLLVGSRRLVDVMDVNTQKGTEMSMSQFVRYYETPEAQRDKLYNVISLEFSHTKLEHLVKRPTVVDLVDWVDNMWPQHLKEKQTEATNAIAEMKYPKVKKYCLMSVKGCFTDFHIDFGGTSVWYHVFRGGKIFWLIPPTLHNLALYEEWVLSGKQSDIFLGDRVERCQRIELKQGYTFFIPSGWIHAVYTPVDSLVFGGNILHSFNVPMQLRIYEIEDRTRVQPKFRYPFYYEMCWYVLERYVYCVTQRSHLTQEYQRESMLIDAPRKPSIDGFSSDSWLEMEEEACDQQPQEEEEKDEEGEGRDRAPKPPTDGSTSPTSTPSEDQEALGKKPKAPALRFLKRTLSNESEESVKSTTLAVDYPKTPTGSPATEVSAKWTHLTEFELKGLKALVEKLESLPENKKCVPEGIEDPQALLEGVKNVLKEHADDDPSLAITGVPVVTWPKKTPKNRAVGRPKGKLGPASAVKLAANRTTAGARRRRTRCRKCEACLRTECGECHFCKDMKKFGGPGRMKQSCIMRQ
Procedure, shortened: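 IC50 values come from an AlphaLISA signal: acceptor beads incubated 60 min in the dark, then streptavidin donor beads, both at room temperature. Beforehand, enzyme and compound were preincubated 10 min and the substrate reaction ran at room temperature.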

[2] = biological target: T2, JMJD1B (KDM3B) (Homo sapiens, UniProt Q7LBC6); test: Histone lysine demethylase AlphaLISA assay, JMJD1B; assay type: biochemical; conditions: substrate BK9M2
T2 construct: 842-1761; host or cells: Bac (baculovirus)
T2 sequence (Q7LBC6 842-1761): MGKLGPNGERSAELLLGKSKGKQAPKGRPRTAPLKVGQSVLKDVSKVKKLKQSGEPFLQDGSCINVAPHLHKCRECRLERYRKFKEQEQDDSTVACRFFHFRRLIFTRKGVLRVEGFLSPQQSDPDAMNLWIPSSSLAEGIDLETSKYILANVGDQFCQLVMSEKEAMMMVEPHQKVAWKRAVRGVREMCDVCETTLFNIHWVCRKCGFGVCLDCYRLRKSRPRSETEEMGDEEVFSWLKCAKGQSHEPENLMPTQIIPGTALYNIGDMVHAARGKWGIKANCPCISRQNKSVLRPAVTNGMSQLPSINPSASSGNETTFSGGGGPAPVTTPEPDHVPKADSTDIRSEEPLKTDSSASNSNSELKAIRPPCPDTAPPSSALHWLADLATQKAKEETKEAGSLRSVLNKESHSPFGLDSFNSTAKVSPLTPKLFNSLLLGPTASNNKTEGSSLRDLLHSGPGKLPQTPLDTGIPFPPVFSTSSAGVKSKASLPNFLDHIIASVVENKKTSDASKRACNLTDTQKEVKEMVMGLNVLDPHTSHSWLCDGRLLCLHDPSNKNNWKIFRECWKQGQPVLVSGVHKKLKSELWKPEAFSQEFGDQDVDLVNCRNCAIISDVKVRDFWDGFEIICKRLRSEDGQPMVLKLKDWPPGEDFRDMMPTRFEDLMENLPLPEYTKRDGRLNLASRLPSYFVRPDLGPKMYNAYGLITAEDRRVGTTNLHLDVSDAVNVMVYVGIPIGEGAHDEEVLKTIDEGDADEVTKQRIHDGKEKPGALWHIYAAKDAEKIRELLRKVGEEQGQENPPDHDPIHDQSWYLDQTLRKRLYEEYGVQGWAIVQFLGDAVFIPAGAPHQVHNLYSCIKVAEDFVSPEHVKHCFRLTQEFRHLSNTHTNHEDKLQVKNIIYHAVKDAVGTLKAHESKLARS
Procedure: Example 2: Histone Lysine Demethylase AlphaLISA Assays for IC50 Value Determination
Assays are performed analogously to the protocol described by Perkin Elmer (Roy et al. Perkin Elmer Technical Note: AlphaLISA #12, April 2011).
Enzymes are dissolved in enzyme buffer and incubated for 10 min before 5 μL is added to 5 μL 3% DMSO solutions of compounds in enzyme buffer. Incubated for another 10 minutes, before 5 μL substrate solution is added and the reaction mixture is incubated at room temperature for the given period. 10 μL acceptor beads, suspended at given dilutions in Epigenetic Buffer (Perkin Elmer AL008) from stock, are added and the suspension is incubated 60 minutes in the dark at room temperature, before 10 μL suspension (at the given dilutions in Epigenetic Buffer) of streptavidin donor beads (Perkin Elmer 6760002) in Epigenetic Buffer is added. After incubation at room temperature in the dark the plates are read. Reaction conditions are seen in Table 2b.

| Compound | IC50 [1] | IC50 [2] |
| --- | --- | --- |
| 2-({[(1R)-2-hydroxy-1-{methyl[3-(1-methyl-1H-imidazol-2-yl)propyl]carbamoyl}ethyl]amino}methyl)pyridine-4-carboxylic acid [#37] | ≥ 1000 nM | ≥ 1000 nM |
| CCCCN1CCCC1CCNCc1cc(C(=O)O)ccn1 (stereo not shown) [#34, 2-({[2-(1-butylpyrrolidin-2-yl)ethyl]amino}methyl)pyridine-4-carboxylic acid] | – | ≥ 1000 nM |
| CC(C)=CCCC(C)CCN1CCC(NC(=O)CNCc2cc(C(=O)O)ccn2)C1 (stereo not shown) [#35, 2-{[({[1-(3,7-dimethyloct-6-en-1-yl)pyrrolidin-3-yl]carbamoyl}methyl)amino]methyl}pyridine-4-carboxylic acid] | 100 to 1000 nM | ≥ 1000 nM |
| CCN(CCN(C)C)C(=O)CNCc1cc(C(=O)O)ccn1 [#49, 2-{[({[2-(dimethylamino)ethyl](ethyl)carbamoyl}methyl)amino]methyl}pyridine-4-carboxylic acid] | 100 to 1000 nM | ≥ 1000 nM |

Other lines, results leading:

| IC50 [1] | IC50 [2] | Compound |
| --- | --- | --- |
| < 100 nM | ≥ 1000 nM | O=C(O)c1ccnc(CNCC(=O)N2CCCC2)c1 [#13, 2-({[2-oxo-2-(pyrrolidin-1-yl)ethyl]amino}methyl)pyridine-4-carboxylic acid] |
| < 100 nM | ≥ 1000 nM | CCCCN(C)C(=O)CNCc1cc(C(=O)O)ccn1 [#14, 2-[({[butyl(methyl)carbamoyl]methyl}amino)methyl]pyridine-4-carboxylic acid] |
| < 100 nM | 100 to 1000 nM | COc1ccccc1CN1CCC(NC(=O)CNCc2cc(C(=O)O)ccn2)CC1 [#29, 2-({[({1-[(2-methoxyphenyl)methyl]piperidin-4-yl}carbamoyl)methyl]amino}methyl)pyridine-4-carboxylic acid] |

— US10221139B2, “Inhibitors of histone demethylases” (Gilead Sciences, Inc., priority 2012, dated 2019)
